According to publication PMC10688702, “The indole motif is essential for the antitrypanosomal activity of N^5-substituted paullones” (PLOS ONE, 2023):

Tests used:
[1] = tested on: trypanothione synthetase of T. b. brucei (TbTryS); test: TryS activity screening assay on recombinant TbTryS; format: biochemical; details: % activity at 30 μM compound, errors 2 SD
Experimental: TryS from different trypanosomatids was produced in recombinant form with an N-terminal His-tag. The constructs pET-15b TbTryS and pET-28c(+)LiTryS were used to express TryS of T. b. brucei 427 (MITat1.4, GenBank accession protein id CAC87573.1), and L. infantum JPCM5 (GenBank accession protein id CAM69145.1). E. coli strain BL21 (DE3) served as the expression host. For TbTryS, the cells were cultured in a medium based in Terrific Broth and induction with isopropyl 1-thio-β-D-galactopyranoside (IPTG), while for LiTryS, the cells were cultured in ZYM-5052 auto-induction medium. For a detailed description of the expression, see Benítez et al.. The purification was performed by immobilised metal affinity chromatography in a HisTrap Fast Flow column (GE Healthcare) followed by size exclusion chromatography. […] The fractions containing recombinant TryS with ≥95% purity were pooled and concentrated to >10 mg protein/mL using a 10 kDa cut-off Amicon filter (Millipore, Billerica, CA). Glycerol was added at a final concentration of 40% (v/v). The samples were stored at -80°C. Enzyme purity and activity were assessed by SDS-PAGE (12%) under reducing conditions and by the end-point TryS assay (see TryS activity screening assay), respectively. Protein concentration was determined using the bicinchoninic acid assay with bovine serum albumin as standard. The protocols yielded 25–30 mg TbTryS or LiTryS per litre of culture medium and homogeneous specific activity.
For all TryS, ATP was used at 150 μM because of a high background signal at higher concentrations and Spd fixed at 2 mM, in agreement with the intracellular levels calculated from data reported in the literature for trypanosomatids. GSH was adjusted to 0.05 and 0.25 mM for TbTryS and LiTryS, respectively, to avoid substrate inhibition or to approach physiological concentrations. […] Microtiter plate wells were loaded with 5 μL of the test compound, DMSO (reaction control) or a TryS specific inhibitor (inhibition control) and 40 μL of MM solution. The reactions were then started by adding 5 μL of TryS (2 and 3*10^−5 μmol*min^-1*mL^-1 for LiTryS and TbTryS, respectively) and stopped after 15 min with 200 μL BIOMOL® GREEN reagent (Enzo Life Sciences). The compounds used as inhibition control were added at concentrations that inhibited 50% TryS activity: 30 μM and 150 nM MOL2008 for TbTryS and LiTryS, respectively. Blanks were prepared for each condition by adding 5 μL of screening reaction buffer instead of the enzyme. The TryS activity is calculated as follows: TrySactivity%=A650nmCi-A650nmCiB/A650nmE-A650nmEB*100%
A650 nm Ci is the mean absorbance at 650 nm for the reaction test with compound I (Ci), A650 nm CiB is the mean absorbance at 650 nm for the blank control with compound I (CiB), A650 nm E is the mean absorbance at 650 nm for the reaction control with DMSO (E) and A650 nm EB is the mean absorbance at 650 nm for the blank control with DMSO (EB). The errors were expressed as 2 standard deviations (SD), SD estimated as σ^n−1.

[2] = tested on: murine macrophages J774.A1; test: Cytotoxicity assays on murine macrophages (WST-1); format: cell-based; details: error 1 SD
Experimental: Cytotoxicity assays on murine macrophages. Murine macrophages from the cell line J774.A1 (ATCC® TIB-67TM) were cultivated under a humidified 5% CO2/95% air atmosphere at 37°C in Dulbecco’s modified Eagle’s medium (DMEM) supplemented with 10% (v/v) FBS, 10 U/mL penicillin and 10 μg/mL streptomycin. The experimental protocol for the determination of EC50 values was identical as described by Demoro et al. 2012 [71], with the following change: 200 μL/well of a cell suspension at 6 × 10^4 cells per mL was added in a 96-well culture plate and washed with 150 μL of DMEM. The cytotoxicity of the compounds was evaluated in triplicate using the WST-1 reagent (Roche). The control treatment included cells cultured in the presence of DMSO 1% (v/v). Absorbance at 450 nm (Ai 450 nm), corresponding to the formazan dye produced by metabolically active cells, was measured with an EL 800-microplate reader. The corrected absorbance values at 450 nm (Ai c 450 nm) were obtained by subtracting the corresponding absorbance value at 630 nm (Ai 630 nm) and the blank average (Ablank 450 nm): Aic450nm=Ai450nm-Ai630nm-Ablank450nm
Cell viability (%), with the number of viable cells proportional to the absorbance, was calculated as follows: cellviability%=Aic450nm/Anegativecontrolc450nm*100%
Ai c 450 nm refers to an absorbance obtained from cells treated with compound I at a specific concentration (i) and Anegative control c 450 nm refers to an absorbance obtained from cells in the DMSO-treated control (negative control). The errors were calculated using error propagations and are expressed as one SD, estimated as σ^n−1.

Row | SMILES | TbTryS activity [% at 30 μM] [1] | Macrophage toxicity [% at stated conc.] ([2]; % cell death at 60 μM) | Macrophage toxicity [% at stated conc.] ([2]; % cell death at 50 μM)
1 | CNCCNC(=O)CN1C(=O)Cc2c([nH]c3ccc(I)cc23)-c2ccc(Cl)cc21 [1f, 2-(3-Chloro-9-iodo-6-oxo-7,12-dihydrobenzo[2,3]azepino[4,5-b]indol-5(6H)-yl)-N-[2-(methylamino)ethyl]acetamide] | 82.9 ± 6.5% | 105.8 ± 0.2% | –
2 | CNCCNC(=O)CN1C(=O)Cc2c([nH]c3ccc(C(F)(F)F)cc23)-c2ccc(Cl)cc21 [1h, 2-(3-Chloro-6-oxo-9-trifluoromethyl-7,12-dihydrobenzo[2,3]azepino[4,5-b]indol-5(6H)-yl)-N-[2-(methylamino)ethyl]acetamide] | 87.8 ± 4.6% | 102.8 ± 0.4% | –
3 | CNCCNC(=O)CN1C(=O)Cc2c([nH]c3ccc(Cl)cc23)-c2ccc(Cl)cc21 [1g, 2-(3,9-Dichloro-6-oxo-7,12-dihydrobenzo[2,3]azepino[4,5-b]indol-5(6H)-yl)-N-[2-(methylamino)ethyl]acetamide] | 82.8 ± 5.9% | – | 101.9 ± 3.6%
